1 compound from publication PMC5357904, “Vertebrate Cryptochromes are Vestigial Flavoproteins” (Scientific Reports, 2017) can be followed below.

The Kd is the free concentration of one partner at which half of the binding sites on the other are occupied at equilibrium, for simple one-to-one binding.

Molecules are shown by their SMILES. Numbering of substitutions follows the chain as printed.

What all share (assay type): binding
Assay [1] concerns the target T1, HsCRY2 (Homo sapiens, UniProt Q49AN0, H243R/S415N).
T1 construct: gene CRY2; full length 1-593, 39-aa N-terminal 6xHis extension (pRSET-A), E. coli SoluBL21, apo-protein
T1 sequence (Q49AN0 1-593 H243R/S415N): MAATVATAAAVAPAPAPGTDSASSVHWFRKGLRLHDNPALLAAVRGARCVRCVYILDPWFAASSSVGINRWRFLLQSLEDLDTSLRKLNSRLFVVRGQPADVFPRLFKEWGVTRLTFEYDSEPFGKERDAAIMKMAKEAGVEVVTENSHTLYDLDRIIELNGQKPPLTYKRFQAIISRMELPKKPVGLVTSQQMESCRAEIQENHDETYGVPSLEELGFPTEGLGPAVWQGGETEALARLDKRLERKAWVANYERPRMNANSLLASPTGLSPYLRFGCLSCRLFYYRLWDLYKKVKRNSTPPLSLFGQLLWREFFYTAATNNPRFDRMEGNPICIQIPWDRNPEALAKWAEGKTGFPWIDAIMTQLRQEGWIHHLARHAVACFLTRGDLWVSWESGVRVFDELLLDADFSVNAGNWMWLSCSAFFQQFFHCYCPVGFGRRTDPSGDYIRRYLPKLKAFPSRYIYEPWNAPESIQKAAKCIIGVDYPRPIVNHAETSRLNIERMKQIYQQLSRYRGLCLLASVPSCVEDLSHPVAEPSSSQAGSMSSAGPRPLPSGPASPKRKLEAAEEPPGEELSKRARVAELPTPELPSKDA
Description: UV-visible absorption after incubation in excess FAD and spin filtration. The settings on record: occupancy after incubation in excess FAD and removal of free FAD.

The target of assay [2] is T2, DmCRY (Drosophila melanogaster, UniProt O77059).
T2 construct: gene cry
T2 sequence (O77059 1-539): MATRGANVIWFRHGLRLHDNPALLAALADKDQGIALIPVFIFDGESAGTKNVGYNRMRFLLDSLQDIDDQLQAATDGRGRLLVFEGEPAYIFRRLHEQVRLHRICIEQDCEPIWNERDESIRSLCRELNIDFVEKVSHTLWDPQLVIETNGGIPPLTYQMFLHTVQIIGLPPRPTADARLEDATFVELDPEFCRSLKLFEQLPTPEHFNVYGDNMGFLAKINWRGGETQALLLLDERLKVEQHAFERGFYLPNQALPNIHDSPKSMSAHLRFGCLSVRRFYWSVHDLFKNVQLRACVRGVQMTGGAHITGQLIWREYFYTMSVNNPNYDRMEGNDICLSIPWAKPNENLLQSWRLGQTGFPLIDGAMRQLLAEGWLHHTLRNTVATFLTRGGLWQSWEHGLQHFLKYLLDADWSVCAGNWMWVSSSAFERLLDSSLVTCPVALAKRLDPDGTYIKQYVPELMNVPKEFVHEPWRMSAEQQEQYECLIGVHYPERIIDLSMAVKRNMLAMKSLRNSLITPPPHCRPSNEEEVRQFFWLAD
Description: UV-visible absorption and visible CD of purified protein. The settings on record: co-purified oxidized FAD; near-stoichiometric.

In assay [3] the target is T3, DmCRY (Drosophila melanogaster, UniProt O77059, R237E).
T3 construct: gene cry
T3 sequence (O77059 1-539 R237E): as the sequence (O77059 1-539) above, with R237E counted along it
Description: UV-visible absorption of purified protein ([…] nm), FAD occupancy. The settings on record: co-purified FAD.

In a further assay the target is T4, HsCRY1 (Homo sapiens, UniProt Q16526).
T4 construct: gene CRY1; full length 1-586, 39-aa N-terminal 6xHis extension (pRSET-A), E. coli SoluBL21, apo-protein
T4 sequence (Q16526 1-586): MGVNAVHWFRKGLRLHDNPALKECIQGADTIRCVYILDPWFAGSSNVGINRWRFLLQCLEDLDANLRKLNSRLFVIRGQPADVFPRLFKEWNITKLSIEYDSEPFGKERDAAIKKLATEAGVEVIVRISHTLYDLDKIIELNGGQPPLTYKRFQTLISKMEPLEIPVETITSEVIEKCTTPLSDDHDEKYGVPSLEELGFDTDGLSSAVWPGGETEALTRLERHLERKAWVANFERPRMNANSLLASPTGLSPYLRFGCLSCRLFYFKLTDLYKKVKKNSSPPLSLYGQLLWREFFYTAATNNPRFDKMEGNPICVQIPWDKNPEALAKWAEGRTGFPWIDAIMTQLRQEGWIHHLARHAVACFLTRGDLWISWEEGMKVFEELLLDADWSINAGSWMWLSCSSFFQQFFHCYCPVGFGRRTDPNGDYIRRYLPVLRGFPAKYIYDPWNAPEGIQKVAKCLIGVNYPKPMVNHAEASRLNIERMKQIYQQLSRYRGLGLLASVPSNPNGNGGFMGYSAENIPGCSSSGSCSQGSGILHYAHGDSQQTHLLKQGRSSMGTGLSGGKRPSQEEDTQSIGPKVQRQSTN
Description: UV-visible absorption titration of apo-protein into constant FAD, global fit.

Assay [4] addresses T5, DmCRY (Drosophila melanogaster, UniProt O77059, R298E).
T5 construct: gene cry
The assay is described as follows: UV-visible absorption of purified protein ([…] nm), FAD occupancy. The settings on record: co-purified FAD.

In assay [5] the target is T6, DmCRY (Drosophila melanogaster, UniProt O77059, R298E/Q311E).
T6 construct: gene cry
T6 sequence (O77059 1-539 R298E/Q311E): as the sequence (O77059 1-539) above, with R298E, Q311E counted along it
The description is as above. The settings on record: co-purified FAD.

Assay [6] deals with T7, DmCRY (Drosophila melanogaster, UniProt O77059, Q311E).
T7 construct: gene cry
T7 sequence (O77059 1-539 Q311E): as the sequence (O77059 1-539) above, with Q311E counted along it
The description is as above. The settings on record: co-purified FAD.

Assay [7] has as its target T8, DmCRY (Drosophila melanogaster, UniProt O77059, R237H).
T8 construct: gene cry
The description is as above. The settings on record: co-purified FAD.

In assay [8] the target is T9, HsCRY2 (Homo sapiens, UniProt Q49AN0).
T9 construct: gene CRY2; full length 1-593, 39-aa N-terminal 6xHis extension (pRSET-A), E. coli SoluBL21, apo-protein
T9 sequence (Q49AN0 1-593): T1 sequence (Q49AN0 1-593 H243R/S415N) with R243H, N415S
The assay is described as follows: UV-visible absorption titration of apo-protein into constant FAD, global fit.

Assay [9] addresses T10, DmCRY (Drosophila melanogaster, UniProt O77059, N419S).
T10 construct: gene cry
Description: UV-visible absorption of purified protein ([…] nm), FAD occupancy. The settings on record: co-purified FAD.

A further assay addresses T11, SbCRY1a (Sylvia borin, UniProt Q6ZZY0).
T11 construct: gene CRY1; full length 1-620, 36-aa N-terminal 6xHis extension (pRSET-A), E. coli SoluBL21, apo-protein
T11 sequence (Q6ZZY0 1-620): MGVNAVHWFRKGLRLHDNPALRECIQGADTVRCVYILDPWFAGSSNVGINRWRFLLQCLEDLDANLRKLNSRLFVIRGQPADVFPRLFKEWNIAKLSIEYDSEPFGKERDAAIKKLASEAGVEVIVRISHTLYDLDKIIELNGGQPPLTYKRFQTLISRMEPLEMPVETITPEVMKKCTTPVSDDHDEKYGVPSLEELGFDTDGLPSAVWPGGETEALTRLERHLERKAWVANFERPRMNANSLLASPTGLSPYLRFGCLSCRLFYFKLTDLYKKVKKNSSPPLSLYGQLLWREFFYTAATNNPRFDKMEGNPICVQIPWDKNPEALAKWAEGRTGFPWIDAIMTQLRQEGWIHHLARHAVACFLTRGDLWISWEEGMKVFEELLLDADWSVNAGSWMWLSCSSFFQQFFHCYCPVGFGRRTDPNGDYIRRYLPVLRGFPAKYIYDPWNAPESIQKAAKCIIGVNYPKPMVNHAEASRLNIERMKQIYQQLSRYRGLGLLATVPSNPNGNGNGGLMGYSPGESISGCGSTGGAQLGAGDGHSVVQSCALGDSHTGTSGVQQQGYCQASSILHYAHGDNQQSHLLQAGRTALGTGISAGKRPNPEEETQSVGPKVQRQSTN
The assay is described as follows: UV-visible absorption titration of apo-protein into constant FAD, global fit.

Assay [10] addresses T12, DmCRY (Drosophila melanogaster, UniProt O77059, R237E/R298E).
T12 construct: gene cry
The assay is described as follows: UV-visible absorption of purified protein ([…] nm), FAD occupancy. The settings on record: co-purified FAD.

T5 sequence (O77059 1-539 R298E): as the sequence (O77059 1-539) above, with R298E counted along it
T12 sequence (O77059 1-539 R237E/R298E): as the sequence (O77059 1-539) above, with R237E, R298E counted along it
T8 sequence (O77059 1-539 R237H): as the sequence (O77059 1-539) above, with R237H counted along it
T10 sequence (O77059 1-539 N419S): as the sequence (O77059 1-539) above, with N419S counted along it

Consider `Cc1cc2nc3c(=O)[nH]c(=O)nc-3n(C[C@H](O)[C@H](O)[C@H](O)COP(=O)(O)OP(=O)(O)OC[C@H]3O[C@@H](n4cnc5c(N)ncnc54)[C@H](O)[C@@H]3O)c2cc1C` [FAD], for which, on HsCRY2 [1], the “% bound FAD” value was ~ 30%. Besides, on DmCRY [2], the “UV-visible absorption and visible CD of purified protein” value was “UV-visible absorption spectrum of DmCRY shows near-stoichiometric binding of oxidized FAD”. Further, the “% reduction of FAD occupancy” value is ~ 12% at DmCRY [3], ~ 58% at DmCRY [5] and ~ 16% at DmCRY [10]. The figures for the dissociation constant Kd on HsCRY1, on HsCRY2 [8] and at SbCRY1a were 16 µM, 68 µM and 97 µM, respectively. The FAD occupancy result at DmCRY [4], on DmCRY [6], at DmCRY [7] and on DmCRY [9] was “single point mutations only had a minimal impact on FAD occupancy” each time.
